Source: patent publication US20250235496A1, “USE OF BELLIDIFOLIN (BEL) AND/OR BEL-CONTAINING EXTRACT IN PREPARATION OF ANTIDEPRESSANT PRODUCT” (priority 2024, published 2025)

Test: Mass spectrometry imaging of mouse brain
Format: in vivo, mice
Details: 10, 20 and 40 mg/kg, 21 d

In the case of COc1cc(O)c2c(=O)c3c(O)ccc(O)c3oc2c1 [BEL, bellidifolin], the “BEL signal in brain (mass spectrometry imaging), passage of BBB” value is reported as “BEL signals were detected”.
